US20230100235A1, “ANTICANCER AGENT COMPOSITION” (CARNA BIOSCIENCES, INC., priority 2020, published 2023)
pIC50: −log10 of the molar value. Structures can show the parent of a compound that is named as a salt. Where two headings read alike, the source gives them in different places.

Legend:
Assay type in all cases: cell-based, Human
OCI-Ly10 cells = experiment: Cell proliferation suppression test of single agents, OCI-Ly10 (Alamar Blue, 96 h); details: read-out: Inhibitory Activity on cell proliferation IC50 OCI-Ly10
Experimental: Human lymphoma cell line OCI-Ly10 cells (obtained from University Health Network) were cultured in a 5% CO2 incubator using IMDM medium (Iscove's Modified Dulbecco's Medium, Thermo Fisher Scientific Inc.) containing 20% fetal bovine serum (GE Healthcare) and 1% penicillin streptomycin (NACALAI TESQUE, INC.).
(§1) The OCI-Ly10 or U2932 cells (20000 cells/well) were seeded into 96-well plates (cell plates), to which the test compound diluted with the medium was added at final concentrations of 0.009 nM to 30000 nM (a final DMSO concentration of 0.3%), and after 96 hours of culture, an Alamar Blue reagent (Thermo Fisher Scientific Inc.) was added. After 3 hours, the fluorescence of excitation wavelength 560 nm/fluorescence wavelength 590 nm was measured and IC50 values of inhibitory activity were determined by setting a compound-free and cell-free well as 100% and a compound-free and cell-containing well as 0%.

U2932 cells = experiment: Cell proliferation suppression test of single agents, U2932 (Alamar Blue, 96 h); details: read-out: Inhibitory Activity on cell proliferation IC50 U2932
Experimental: Human lymphoma cell line U2932 cells (obtained from DSMZ) were cultured in a 5% CO2 incubator using RPMI medium (Roswell Park Memorial Institute medium, Thermo Fisher Scientific Inc.) containing 10% fetal bovine serum (GE Healthcare) and 1% penicillin streptomycin (NACALAI TESQUE, INC.).
as §1

[1] = test system: BTK-C481S-mutant OCI-Ly10 cells; experiment: Cell proliferation suppression test of single agents, BTK-C481S-mutant OCI-Ly10; details: single agent, read-out: Inhibitory activity on cell proliferation OCI-Ly10 BTK-C481S IC50
Experimental: as §1
BTK-C481S-mutant OCI-Ly10 cells were produced by point mutation knock-in using the CRISPR-Cas9 system. Cas9 protein (Thermo Fisher Scientific Inc.), guide RNA prepared with GeneArt™ Precision gRNA Synthesis Kit (Thermo Fisher Scientific Inc.), and a single-stranded synthetic oligonucleotide to replace 481st cysteine residue of BTK with a serine residue were introduced into OCI-Ly10 cells by an electroporation method. The resulting modified OCI-Ly10 cells were cultured in the presence of ibrutinib, and the grown cells were used as BTK-C481S-mutant OCI-Ly10 cells. Transduction of the mutation was confirmed by genomic DNA and mRNA sequence analysis.
In the same manner as in Test Example 1, IC50 values for each inhibitor single agent were determined.

[2] = Homo sapiens, OCI-Ly10, single agent
[3] = Homo sapiens, U2932, single agent

| Compound | pIC50 (OCI-Ly10 cells; single agent) | pIC50 (U2932 cells; single agent) | pIC50 [1] | pIC50 (OCI-Ly10 cells; [2]) | pIC50 (U2932 cells; [3]) | pIC50 ([1]; Homo sapiens, OCI-Ly10) |
| --- | --- | --- | --- | --- | --- | --- |
| O=C(c1cc(-c2cc3c(cc2C(=O)N2Cc4ccccc4C[C@H]2CN2CCOCC2)OCO3)n2c1CCCC2)N(c1ccccc1)c1ccc(O)cc1 [Compound S-55746] | 7.16 | 5.87 | 6.92 | – | – | – |
| CC1(C)CCC(c2ccc(Cl)cc2)=C(CN2CCN(c3ccc(C(=O)NS(=O)(=O)c4ccc(N[C@H](CCN5CCOCC5)CSc5ccccc5)c(S(=O)(=O)C(F)(F)F)c4)cc3)CC2)C1 [navitoclax] | – | – | – | 7.17 | 6.41 | 7.02 |
| COC1=CC(c2cc3ccccc3[nH]2)=N/C1=C\c1[nH]c(C)cc1C [obatoclax mesylate] | – | – | – | 6.82 | 6.72 | 6.82 |
| CC1(C)CCC(CN2CCN(c3ccc(C(=O)NS(=O)(=O)c4ccc(NCC5CCOCC5)c([N+](=O)[O-])c4)c(Oc4cnc5[nH]ccc5c4)c3)CC2)=C(c2ccc(Cl)cc2)C1 [venetoclax] | – | – | – | 8.00 | 6.14 | 7.70 |
